Data published in patent publication US6794406B2, “Indole derivatives” (Bayer Aktiengesellschaft, priority 2000, dated 2004).

These compounds were tested on luciferase gene under the control of a thyroid hormone-regulated promoter (TRE) in HepG2 hepatocarcinoma cell (assay: T3 promoter assay cell test). Conditions: stably transfected human HepG2 cells; luciferase induction; incubated 48 or 72 hours with costimulator retinolic acid; four replicates.
Assay type: cell-based
Experimental: The efficacy of the compounds according to the invention can be tested, for example, in vitro by the T3 promoter assay cell test described below:
The test is carried out using a stably transfected, human HepG2 hepatocarcinoma cell which expresses a luciferase gene under the control of a thyroid hormone-regulated promoter. The vector used for the transfection carries, ahead of the luciferase gene, a minimal thymidine kinase promoter having a thyroid hormone-responsive element (TRE), which consists of two inverted palindromes of 12 Bp each and an 8 Bp spacer.
For the test, the cell cultures are inoculated into 96 well plates in Eagle's Minimal Essential Medium with the following additives: glutamine, tricine [N-(tris(hydroxymethyl)methyl)glycine], sodium pyruvate, non-essential amino acids (L-Ala, L-Asn, L-Asp, L-Pro, L-Ser, L-Glu, Gly), insulin, selenium and transferrin. The cultures are grown for 48 hours at 37° C. and under a 10% CO2 atmosphere. Serial dilutions of test substance or reference compound (T3, T4) and costimulator retinolic acid are then added to the test cultures and these are incubated as beforehand for a further 48 or 72 hours. Each substance concentration is tested in four replicates. For the determination of the luciferase induced by T3 or other substances, the cells are then lysed by addition of a Triton- and luciferin-containing buffer (from Promega) and immediately measured luminometrically. The EC50 values of each compound are calculated.

Structure (SMILES) | EC50 [nM]
Cc1cc(NC(=O)CC(=O)O)cc(Cl)c1Oc1ccc2[nH]cc(C(C)C)c2c1 [Example 6, 3-({3-Chloro-4-[(3-isopropyl-1H-indol-5-yl)oxy]-5-methylphenyl}amino)-3-oxo-propionic acid] | 8
CC(C)c1c[nH]c2ccc(Oc3c(C(F)(F)F)cc(CC(=O)O)cc3C(F)(F)F)cc12 [Example 11, 4-(3-Isopropyl-1H-indol-5-yloxy)-3,5-bis-trifluoromethylphenylacetic acid] | 0.5
Cc1cc(NCC(=O)O)cc(C)c1Oc1ccc2[nH]cc(C(C)C)c2c1 [Example 5, N-{4-[(3-Isopropyl-1H-indol-5-yl)oxy]-3,5-dimethylphenyl}glycine] | 22
Cc1cc(OCC(=O)O)cc(C)c1Oc1ccc2[nH]cc(C(C)C)c2c1 [Example 16, {4-[(3-Isopropyl-1H-indol-5-yl)oxy]-3,5-dimethylphenoxy}acetic acid] | 21
CC(C)c1c[nH]c2ccc(Oc3c(C(F)(F)F)cc(CCC(=O)O)cc3C(F)(F)F)cc12 [Example 15, 4-(3-Isopropyl-1H-indol-5-yloxy)-3,5-bis-trifluoromethylphenylpropionic acid] | 4
